{
  "source": "patent EP1978972B1",
  "about": "“USE OF ALKYLGLUCOSIDE ESTERS AS BETA-DEFENSIN INDUCERS” (Pierre Fabre Dermo-Cosmétique, priority 2006, dated 2007)",
  "key": {"[1]": {"test_system": "hBD-3", "assay": "Immunohistochemistry of hBD-3 peptide in skin explants", "type": "cell-based, human", "settings": "skin explant, qualitative", "procedure": "Les échantillons inclus dans la résine Tissue Tek® sont coupés à froid (température de la chambre à -25°C et la température du porte-objet à - 28°C) à l'aide d'un cryostat (Leica CM 3050s, Nussloch). Les cryocoupes d'une épaisseur de 5 µm sont récupérées sur des lames porte-objet prétraitées, puis mises à sécher environ 2 h à température ambiante et stockées à -20°C pour une utilisation ultérieure. Avant de réaliser l'immuno-marquage, les coupes sont fixées à l'acétone à -20°C pendant 10 min, séchées et conservées à -20°C. Lors d'une première étape, les coupes sont hydratées puis incubées avec les anticorps primaires dirigés contre les peptides d'intérêt dilués dans du PBS. Les anticorps primaires utilisés sont les suivants : • Goat Anti-human BD-2 (500-P161G, Peprotech Inc) dilué au 1/50^e • Rabbit Anti-human defensin-3 (AB3478, Chemicon international) dilué au 1/1000^e • Rabbit Anti-human LL37 (G-075-06, Phoenix Pharmaceuticals Inc) dilué au 1/50^e\nPour révéler le complexe Antigène-Anticorps, le kit DAKO LSAB® (DAKO Corporation) est utilisé selon les recommandations du fournisseur. La révélation est réalisée à l'aide d'un substrat de la péroxydase : la 3,3'diaminobenzidine (DAB) (DAKO Corporation). […]"}, "[2]": {"test_system": "S. aureus", "assay": "Adhesion of S. aureus on skin explant (modified Franz cell), count of adherent bacteria", "type": "cell-based, Staphylococcus aureus", "from_the_text": "Pour révéler le complexe Antigène-Anticorps, le kit DAKO LSAB® (DAKO Corporation) est utilisé selon les recommandations du fournisseur. La révélation est réalisée à l'aide d'un substrat de la péroxydase : la 3,3'diaminobenzidine (DAB) (DAKO Corporation). La réaction enzymatique est révélée par une coloration brune. • ➢L'adhésion des micro-organismes est réalisée dans une cellule à double compartimentation, de type cellule de Franz modifiée. • ➢Une suspension de S.aureus (CIP 53.154) équivalente à 0,5.10^7 micro-organismes est introduite au sein du compartiment supérieur de la cellule. Le dispositif est incubé de 2 h à 37°C sous une atmosphère à 5 % de CO2. A la fin de cette période d'incubation, le surnageant est retiré afin d'éliminer les bactéries non adhérentes. Les échantillons de peau sont ensuite rincés deux fois avec 1 ml de mélange DMEM/HAMF12. Un dénombrement bactérien à l'issue de cette étape donne la proportion de bactéries ayant adhéré à l'explant (T+2 h). Un témoin est réalisé dans le but de déterminer l'adhésion non spécifique des bactéries. • ➢La stimulation de l'expression des β-défensines cutanées précède l'étape d'adhésion. Son objectif est d'étudier l'impact de l'induction des peptides antimicrobiens par des actifs potentiels de type « alkyle mono- ou di-ester d'α,β-butylglucoside » sur l'adhésion de souches bactériennes. Le traitement est effectué en topique ou en systémique. Le temps de stimulation des explants cutanés est de 24 h à 37°C en présence de 5 % de CO2.\nPour analyse, les explants sont retirés de leur cellule, des punchs de diamètres différents (3 mm, 4 mm et 6 mm) sont effectués pour un test MTT de survie, les marquages immuno-histologiques et les analyses des transcrits par RT-PCR. Le reste de peau est utilisé pour une estimation de la flore bactérienne adhérente.\nLe dénombrement de la flore bactérienne adhérente exogène par unité de surface de peau a été effectué selon deux méthodes : • par dénombrement bactérien sur milieu solide • par comptage de la radioactivité émise (la souche contaminante étant marquée au H^3) est effectuée. […]\nAprès une application topique de 5 h et plusieurs rinçages de la surface épidermique d'un explant cutané, l'effet du traitement par l'α,β-LBG brut sur l'adhésion de S.aureus sur ce même explant a été quantifié par le dénombrement des germes adhérents à l'issue d'une mise en contact de 2 h. […]\nAprès application topique et plusieurs rinçages de la surface épidermique des explants cutanés, l'effet du traitement par les isoformes de l'ester de laurate de butylglucoside pur à 90 %, séparées, α seul, β seul, ou en mélange α,β-LBG (56 % α/44 % β) sur l'adhésion de S. aureus sur l'épiderme a été comparé après quantification des germes adhérents par dénombrement."}, "[3]": {"test_system": "S. aureus", "assay": "Direct microbicidal activity and direct effect on adhesion of S. aureus", "set-up": "species or system Staphylococcus aureus", "settings": "at the concentrations used"}, "[4]": {"test_system": "S. aureus", "assay": "Colonisation of skin explant by exogenous S. aureus during 24 h after adhesion step", "type": "cell-based, Staphylococcus aureus", "settings": "systemic treatment, in words", "procedure": "Il est par ailleurs possible d'observer la colonisation de l'explant par le germe exogène (S. aureus) après l'étape d'adhésion pendant 24 h. […] L'effet inverse est observé avec le traitement par le TNF-α, cytokine pro-inflammatoire, qui après avoir entraîné une forte chute de l'adhésion de S. aureus (Cf.III.4.2) ne permet pas une limitation de la croissance du germe pathogène sur l'explant et ceci au dépend du germe commensal S. epidermidis.\nLa figure 12 annexée illustre la comparaison de la colonisation d'une souche contaminante, S. aureus, avec celle d'une souche commensale, S. epidermis."}},
  "data": [
    {"substance": "laurate de butylglucoside [αβ-LBG brut]", "values": [
      {"measurement": "production du peptide hBD-3 dans les couches supérieures de l'épiderme", "setting": "[1]; systemic, 24 h", "value": "stimulation de la production"},
      {"measurement": "production du peptide hBD-3 dans les couches supérieures de l'épiderme", "setting": "[1]; topical", "value": "stimulation de la production"},
      {"measurement": "diminution de l'adhésion des germes sur l'explant", "setting": "[2]; systemic 30 µg/ml, separate compartments, vs unstimulated control", "value": 11, "unit": "%"},
      {"measurement": "baisse de l'adhésion de S. aureus", "setting": "[2]; topical 30 µg/ml for 5 h, then 2 h contact, vs untreated control", "value": 20, "unit": "%"},
      {"measurement": "activité microbicide directe", "setting": "[3]", "value": "ni activité microbicide directe"},
      {"measurement": "direct effect on adhésion de S. aureus", "setting": "[3]", "value": "ni effet sur l'adhésion de S. aureus"},
      {"measurement": "multiplication / croissance du germe pathogène (S. aureus) sur l'explant", "setting": "[4]", "value": "ralentit la multiplication du germe pathogène"}
    ]}
  ]
}
